pIC50: −log10 of the molar value.
Target: T1, human Nav 1.7 channels stably expressed in HEK 293 cells (Homo sapiens, UniProt Q15858)
T1 construct: expressed in transfected cells; host or cells: HEK 293
Test: IonWorks Quattro automated patch-clamp, inactivated state block of Nav 1.7
Assay type: cell-based
Details: double-pulse protocol, HEK 293 cells held at -100 mV, read-out: potency for the Nav 1.7 sodium ion channel (IC50, IonWorks)
Experimental: IonWorks® Experimental Procedure
Compounds were tested on human Nav 1.7 and Nav 1.5 channels stably expressed in HEK 293 cells. Sodium current measurements on IonWorks Quattro: An automated patch-clamp assay on the IonWorks Quattro platform (Molecular Devices) was used to measure state-dependent inhibition of human Nav 1.7 and Nav 1.5 channels. Cells were sealed on a planar substrate using the Population Patch Plate (PPC) technology. Electrical access was obtained using both nystatin and amphotericin. A double-pulse protocol was used for the determination of IC50 values for inactivated state block. Nav 1.7 and Nav 1.5 expressing cells were voltage clamped at −100 mV and −110 mV, respectively. A depolarizing prepulse to −10 mV (Nav 1.7) or −30 mV (Nav 1.5) for 1000 ms followed by a 10 ms repolarization to ˜100 mV (Nav1.7) or −110 mV (Nav 1.5) was given to generate fractional channel inactivation of ˜50%, followed by a 10 ms test pulse to −10 mV (Nav 1.7) or −30 mV (Nav 1.5) to measure peak current in control conditions and after compound addition. The following recording solutions were used (mM). External: 150 NaCl, 2 CaCl2, 5 KCl, 1 Mg Cl2, 10 HEPES, 12 Dextrose; internal: 120 CsF, 30 CsCl, 10 EGTA, 5 HEPES, 5 NaF, 2 MgCl2.
For all electrophysiology experiments, offline analysis was used to determine percent inhibition as a function of drug concentration. IC50 values were determined by fitting to the Hill equation.
The various compounds in Examples 1 through 4 and Tables 1 through 3 exemplified above were assayed for activity and selectivity using the foregoing IonWorks® technique. The results are reported in the following paragraph in a format expressing the identification of the compound with reference Example and compound (e.g. Ex 1-9 is Example 1, compound 9) followed by the observed potency in nM and the ratio of Nav1.7 potency: Nav1.5 potency as described here. Thus, Ex1-9: 1.7=65/ratio=641 identifies compound Example 1, compound 9 as having 65 nM potency for the Nav 1.7 sodium ion channel (as measured by IonWorks®) and a ratio of 641 Nav 1.7: Nav 1.5 potency, determined by IonWorks® measurement.

T1 sequence (Q15858 whole entry): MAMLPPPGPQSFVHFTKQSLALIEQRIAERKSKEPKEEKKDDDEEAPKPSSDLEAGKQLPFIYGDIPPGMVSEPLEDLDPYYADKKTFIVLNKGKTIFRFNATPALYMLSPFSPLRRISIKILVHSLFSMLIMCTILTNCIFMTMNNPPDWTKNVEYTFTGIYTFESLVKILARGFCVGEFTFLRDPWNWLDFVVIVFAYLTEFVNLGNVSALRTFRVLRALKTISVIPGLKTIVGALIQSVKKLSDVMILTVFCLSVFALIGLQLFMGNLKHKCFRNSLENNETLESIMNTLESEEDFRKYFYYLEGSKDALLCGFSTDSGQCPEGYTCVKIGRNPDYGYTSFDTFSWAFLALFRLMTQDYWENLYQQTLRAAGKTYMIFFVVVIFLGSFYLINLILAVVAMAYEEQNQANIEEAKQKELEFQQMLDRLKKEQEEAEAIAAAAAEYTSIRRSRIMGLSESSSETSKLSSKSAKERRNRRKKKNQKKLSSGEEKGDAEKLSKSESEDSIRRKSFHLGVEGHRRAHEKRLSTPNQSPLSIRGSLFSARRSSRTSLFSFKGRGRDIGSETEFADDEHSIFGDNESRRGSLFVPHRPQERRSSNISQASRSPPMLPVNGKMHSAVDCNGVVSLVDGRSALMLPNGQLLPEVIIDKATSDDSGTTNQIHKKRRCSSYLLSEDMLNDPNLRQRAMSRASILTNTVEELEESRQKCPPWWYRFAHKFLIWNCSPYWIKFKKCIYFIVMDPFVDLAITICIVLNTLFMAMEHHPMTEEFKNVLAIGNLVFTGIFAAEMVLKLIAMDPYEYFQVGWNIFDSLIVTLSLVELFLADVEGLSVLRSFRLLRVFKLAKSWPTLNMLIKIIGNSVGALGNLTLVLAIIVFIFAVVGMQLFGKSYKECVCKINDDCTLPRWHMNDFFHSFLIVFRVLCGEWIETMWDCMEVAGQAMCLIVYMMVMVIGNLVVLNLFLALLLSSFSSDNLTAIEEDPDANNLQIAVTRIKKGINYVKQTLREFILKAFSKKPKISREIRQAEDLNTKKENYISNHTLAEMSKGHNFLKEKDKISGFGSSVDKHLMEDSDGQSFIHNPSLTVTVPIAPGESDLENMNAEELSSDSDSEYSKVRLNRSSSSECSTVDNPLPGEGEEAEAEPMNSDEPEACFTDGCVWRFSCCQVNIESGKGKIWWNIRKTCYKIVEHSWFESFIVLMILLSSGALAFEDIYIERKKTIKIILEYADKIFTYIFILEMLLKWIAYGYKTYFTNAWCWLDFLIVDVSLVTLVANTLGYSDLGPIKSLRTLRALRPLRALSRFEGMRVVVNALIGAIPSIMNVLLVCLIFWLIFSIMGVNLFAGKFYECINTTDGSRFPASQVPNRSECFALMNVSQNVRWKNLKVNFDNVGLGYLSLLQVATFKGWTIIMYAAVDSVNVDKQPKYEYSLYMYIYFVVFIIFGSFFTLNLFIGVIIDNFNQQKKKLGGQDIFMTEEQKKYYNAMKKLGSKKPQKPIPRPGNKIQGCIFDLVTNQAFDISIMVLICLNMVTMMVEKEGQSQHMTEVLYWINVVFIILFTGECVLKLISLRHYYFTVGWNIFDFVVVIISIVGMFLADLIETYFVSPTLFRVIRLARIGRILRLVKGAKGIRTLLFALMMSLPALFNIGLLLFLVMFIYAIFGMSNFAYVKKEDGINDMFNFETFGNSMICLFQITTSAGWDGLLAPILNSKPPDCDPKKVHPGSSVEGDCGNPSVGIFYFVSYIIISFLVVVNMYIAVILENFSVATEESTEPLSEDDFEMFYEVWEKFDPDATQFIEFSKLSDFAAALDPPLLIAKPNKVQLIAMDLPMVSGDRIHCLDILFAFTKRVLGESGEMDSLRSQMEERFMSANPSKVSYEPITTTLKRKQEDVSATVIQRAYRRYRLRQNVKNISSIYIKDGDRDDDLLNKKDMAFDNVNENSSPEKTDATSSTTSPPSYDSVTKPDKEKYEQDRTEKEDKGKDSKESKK

Row | pIC50 | SMILES
1 | 7.36 | O=S(=O)(Nc1nccs1)c1cc(Cl)c(NCCCCN2CCC3(CCNC3)C2)cc1F (stereo not shown) [Ex 1-38, 5-chloro-4-{[4-(2,7-diazaspiro[4.4]non-2-yl)butyl]amino}-2-fluoro-N-1,3-thiazol-2-ylbenzenesulfonamide]
2 | 7.72 | NC[C@H]1CCN1CCCCNc1cc(F)c(S(=O)(=O)Nc2ncc(F)s2)cc1Cl [Ex 16-10, 4-({4-[(2R)-2-(aminomethyl)azetidin-1-yl]-butyl}amino)-5-chloro-2-fluoro-N-(5-fluoro-1,3-thiazol-2-yl)-benzene-sulfonamide]
3 | 7.68 | O=S(=O)(Nc1nccs1)c1cc(Cl)c(NCCCCN2CC[C@@H]3CCNC[C@@H]32)cc1F [Ex 1-21, 5-chloro-2-fluoro-4-({4-[(3a5,7aR)-octahydro-1H-pyrrolo[2,3-c]pyridin-1-yl]butyl}amino)-N-1,3-thiazol-2-ylbenzenesulfonamide]
4 | 7.52 | C[C@H](CNC1CCOCC1)NCCCCNc1cc(F)c(S(=O)(=O)Nc2nccs2)cc1Cl [Ex 1-26, 5-chloro-2-fluoro-4-[(4-{[(1R)-1-methyl-2-(tetrahydro-2H-pyran-4-ylamino)ethyl]amino}butyl)amino]-N-1,3-thiazol-2-ylbenzenesulfonamide]
5 | 7.51 | NC1CCCN(CCCCNc2cc(F)c(S(=O)(=O)Nc3nccs3)cc2Cl)CC1 (stereo not shown) [Ex 1-43, 4-{[4-(4-aminoazepan-1-yl)butyl]amino}-5-chloro-2-fluoro-N-1,3-thiazol-2-ylbenzenesulfonamide]
6 | 7.36 | O=S(=O)(Nc1nccs1)c1cc(Cl)c(NCCCCNC2C[C@@H]3CN[C@H]2C3)cc1F (stereo partly drawn) [Ex 16-42, 4-({4-[(1S,4R)-2-azabicyclo[2.2.1]hept-6-yl-amino]butyl}amino)-5-chloro-2-fluoro-N-1,3-thiazol-2-ylbenzene-sulfonamide]
7 | 7.72 | O=S(=O)(Nc1nccs1)c1cc(Cl)c(NCCCCCNCC2CCCCN2)cc1F (stereo not shown) [Ex 9-03, 5-chloro-2-fluoro-4-({5-[(piperidin-2-ylmethyl)-amino]pentyl}amino)-N-1,3-thiazol-2-yl-benzenesulfonamide]
8 | 7.31 | O=S(=O)(Nc1nccs1)c1cc(Cl)c(NCC(F)(F)CCNC[C@@H]2CCCN2)cc1F [Ex 11-11, 5-chloro-4-[(2,2-difluoro-4-{[(2S)-pyrrolidin-2-ylmethyl]amino}butyl)amino]-2-fluoro-N-1,3-thiazol-2-ylbenzenesulfonamide]
9 | 7.54 | NC1CN(CCCCNc2cc(F)c(S(=O)(=O)Nc3nccs3)cc2Cl)C1 [Ex 1-44, 4-{[4-(3-aminoazetidin-1-yl)butyl]amino}-5-chloro-2-fluoro-N-1,3-thiazol-2-ylbenzenesulfonamide]
10 | 7.51 | NCC1CCN1CCCCNc1cc(F)c(S(=O)(=O)Nc2nccs2)cc1Cl (single isomer, unassigned) [Ex 16-52, (R or S)-4-({4-[2-(aminomethyl)-azetidin-1-yl]butyl}amino)-5-chloro-2-fluoro-N-1,3-thiazol-2-ylbenzene-sulfonamide]
11 | 7.18 | O=S(=O)(Nc1nccs1)c1cc(Cl)c(NCCCCNC[C@H]2CC(F)(F)CN2)cc1F [Ex 8-15, 5-chloro-4-{[4-({[(2R)-4,4-difluoropyrrolidin-2-yl]-methyl}amino)butyl]amino}-2-fluoro-N-1,3-thiazol-2-yl-benzenesulfonamide]
12 | 6.96 | O=S(=O)(Nc1nccs1)c1cc(Cl)c(NCCCCN2CCC23CCCNC3)cc1F (stereo not shown) [Ex 1-40, 5-chloro-4-{[4-(1,6-diazaspiro[3.5]non-1-yl)-butyl]amino}-2-fluoro-N-1,3-thiazol-2-yl-benzenesulfonamide]
13 | 7.31 | O=S(=O)(Nc1nccs1)c1cc(Cl)c(NCC(F)(F)CCNC[C@H]2CCCN2)cc1F [Ex 11-12, 5-chloro-4-[(2,2-difluoro-4-{[(2R)-pyrrolidin-2-ylmethyl]amino}butyl)amino]-2-fluoro-N-1,3-thiazol-2-ylbenzenesulfonamide]
14 | 7.72 | N[C@H]1CCN(CCCCNc2cc(F)c(S(=O)(=O)Nc3nccs3)cc2Cl)C1 [Ex 1-11, 4-({4-[(3S)-3-aminopyrrolidin-1-yl]butyl}amino)-5-chloro-2-fluoro-N-1,3-thiazol-2-ylbenzenesulfonamide]
15 | 7.52 | NCC1CCCN(CCCCNc2cc(F)c(S(=O)(=O)Nc3nccs3)cc2Cl)C1 (stereo not shown) [Ex 1-46, 4-({4-[3-(aminomethyl)piperidin-1-yl]butyl}amino)-5-chloro-2-fluoro-N-1,3-thiazol-2-ylbenzenesulfonamide]

Continued, molecule first:

Row | SMILES | pIC50
16 | O=S(=O)(Nc1ncc(F)s1)c1ccc(NCCCCNC[C@@H]2CCCN2)c(Cl)c1 [Ex 7-13, 3-chloro-N-(5-fluoro-1,3-thiazol-2-yl)-4-[(4-{[(2S)-pyrrolidin-2-ylmethyl]amino}butyl)amino]benzenesulfonamide] | 7.80
17 | NCC1(c2ccccc2)CCN(CCCCNc2cc(F)c(S(=O)(=O)Nc3nccs3)cc2Cl)CC1 [Ex 1-45, 4-({4-[4-(aminomethyl)-4-phenylpiperidin-1-yl]butyl}amino)-5-chloro-2-fluoro-N-1,3-thiazol-2-ylbenzenesulfonamide] | 6.96
18 | O=S(=O)(Nc1nccs1)c1cc(Cl)c(NCCCCNCC2Cc3ccccc3CN2)cc1F (stereo not shown) [Ex 1-9, 5-chloro-2-fluoro-4-({4-[(1,2,3,4-tetrahydroisoquinolin-3-ylmethyl)amino]butyl}amino)-N-1,3-thiazol-2-ylbenzenesulfonamide] | 7.89
19 | N#Cc1cc(S(=O)(=O)Nc2ncns2)c(F)cc1NCCCCN[C@@H]1CCNC1 [Ex 16-45, 5-cyano-2-fluoro-4-({4-[(3R)-pyrrolidin-3-yl-amino]butyl}amino)-N-1,2,4-thiadiazol-5-ylbenzene-sulfonamide] | 7.80
20 | O=S(=O)(Nc1nccs1)c1cc(Cl)c(NCCCCN[C@H]2CN[C@H](c3ccccc3)C2)cc1F [Ex 1-8, 5-chloro-2-fluoro-4-[(4-{[(3R,5S)-5-phenylpyrrolidin-3-yl]amino}butyl)amino]-N-1,3-thiazol-2-ylbenzenesulfonamide] | 7.96
21 | O=S(=O)(Nc1nccs1)c1cc(Cl)c(NCCCCNCC2NCc3ccccc32)cc1F (single isomer, unassigned) [Ex 2-4 Enantiomer A, (R or S)-5-chloro-2-fluoro-4-((4-((isoindolin-1-ylmethyl)amino)butyl)amino)-N-(thiazol-2-yl)benzenesulfonamide] | 7.54
22 | CN[C@@H]1CCN(CCCCNc2cc(F)c(S(=O)(=O)Nc3ncc(F)s3)cc2Cl)C1 [Ex 16-54, 5-chloro-2-fluoro-N-(5-fluoro-1,3-thiazol-2-yl)-4-({4-[(3R)-3-(methylamino)-pyrrolidin-1-yl]butyl}-amino)-benzenesulfonamide] | 7.89
23 | NCc1ccccc1CNCCCCNc1cc(F)c(S(=O)(=O)Nc2nccs2)cc1Cl [Ex 3-4, 4-((4-((2-(aminomethyl)benzyl)amino)butyl)amino)-5-chloro-2-fluoro-N-(thiazol-2-yl)benzenesulfonamide] | 7.68
24 | NC1CN(CCCCNc2cc(F)c(S(=O)(=O)Nc3ncns3)cc2Cl)C1 [Ex 16-38, 4-{[4-(3-aminoazetidin-1-yl)-butyl]amino}-5-chloro-2-fluoro-N-1,2,4-thiadiazol-5-yl-benzenesulfonamide] | 7.52
25 | O=S(=O)(Nc1nccs1)c1cc(Cl)c(NCCCCNC[C@@H]2C[C@H](c3ccccc3)CN2)cc1F [Ex 8-13, 5-chloro-2-fluoro-4-{[4-({[(2S,4R)-4-phenylpyrrolidin-2-yl]-methyl}amino)-butyl]amino}-N-1,3-thiazol-2-yl-benzenesulfonamide] | 7.80
26 | O=S(=O)(Nc1nccs1)c1cc(Cl)c(NCCCCNCC2NCc3ccccc32)cc1F (single isomer, unassigned) [Ex 2-4 Enantiomer B, (S or R)-5-chloro-2-fluoro-4-((4-((isoindolin-1-ylmethyl)amino)butyl)amino)-N-(thiazol-2-yl)benzenesulfonamide] | 7.68
27 | O=S(=O)(Nc1nccs1)c1cc(Cl)c(NCCCCNC[C@H]2NCC[C@@H]2c2ccccc2)cc1F [Ex 8-6, 5-chloro-2-fluoro-4-{[4-({[(2S,3R)-3-phenylpyrrolidin-2-yl]-methyl}amino)butyl]amino}-N-1,3-thiazol-2-ylbenzenesulfonamide] | 7.68
28 | N#Cc1cc(S(=O)(=O)Nc2ncc(F)s2)c(F)cc1NCCCCN[C@@H]1CCNC1 [Ex 16-40, 5-cyano-2-fluoro-N-(5-fluoro-1,3-thiazol-2-yl)-4-({4-[(3R)-pyrrolidin-3-yl-amino]butyl}amino)benzene-sulfonamide] | 7.54

From US10968210B2, “Diamino-alkylamino-linked arylsulfonamide compounds with selective activity in voltage-gated sodium channels” (Merck Sharp & Dohme Corp., priority 2016, dated 2021)
